Test systems include RXF 393; OVCAR-5; OVCAR-4; Malme-3M; SF-295; NCI-H226; UO-31; ACHN; SF-268; EKVX; HCT-15; BT-549; UACC-62; SNB-19; M14; KM12; IGROV-1; MCF7; HT-29; HOP-92.
What all share (test): inhibition of tumour cell growth, NCI panel, 48 h

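Each compound was tested at five concentrations against cells in 96-well plates for 48 hours. GI50 = concentration required for 50% inhibition of growth.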 Calls of active or inactive are those of the source. Cut-off read from the data, not from the text of the source: active = GI50 up to about 1.1 µM and inactive = higher.

Regarding `CC1(CC(=O)OC(C#C[Si](C)(C)C)Cc2ccccc2)OCCO1` (configuration not stated), the GI50 in the test on RXF 393, in the test with OVCAR-5, with OVCAR-4, in the test on Malme-3M, with SF-295 and in the test with NCI-H226 was > 100 µM (inactive) throughout. In addition, the GI50 in the test with UO-31 was > 100 µM (inactive); in the test with ACHN, > 100 µM (inactive); in the test with SF-268, > 100 µM (inactive); in the test on EKVX it was > 100 µM (inactive); in the test with HCT-15, above 100 µM; in the test with BT-549, > 100 µM (inactive). Moreover, the GI50 with UACC-62, in the test on SNB-19, in the test on M14, with KM12, with IGROV-1 and in the test on MCF7 was > 100 µM (inactive) throughout. Besides, the GI50 in the test on HT-29 was > 100 µM (inactive).
Turning to `CN(C)P(=O)(Oc1occc1C(O)Cc1ccccc1)N(C)C` (configuration not stated), the GI50 with RXF 393, with OVCAR-5, in the test on OVCAR-4, in the test on Malme-3M, with SF-295 and in the test with NCI-H226 was > 100 µM (inactive) in each case. Further, the GI50 is > 100 µM (inactive) with UO-31; > 100 µM (inactive) with ACHN; > 100 µM (inactive) with SF-268; > 100 µM (inactive) in the test with EKVX; above 100 µM in the test with HCT-15; > 100 µM (inactive) with BT-549. Moreover, the GI50 in the test with SNB-19, in the test with M14, in the test on KM12 and with MCF7 was > 100 µM (inactive) in each case.
In the case of `COc1cc(C2SC(C)C(=O)N2c2ccc(-c3csc(NS(=O)(=O)c4ccc(Cl)c(OC)c4)n3)cc2)ccc1O` (configuration not stated), the GI50 with RXF 393 was > 100 µM (inactive); in the test with OVCAR-5 it was > 100 µM (inactive); in the test on OVCAR-4 it was 26.3 µM (inactive); with Malme-3M it was 27.8 µM (inactive); in the test on SF-295, > 100 µM (inactive); in the test on NCI-H226, > 100 µM (inactive). For the same compound, the GI50 with UO-31 was > 100 µM (inactive); with ACHN it was > 100 µM (inactive); in the test with SF-268 it was 29.4 µM (inactive); with HOP-92, 24.4 µM (inactive); in the test with HCT-15, 33.9 µM; in the test with UACC-62 it was 25.4 µM (inactive). The GI50 was > 100 µM (inactive) in the test with SNB-19; > 100 µM (inactive) in the test on M14; 22.5 µM (inactive) in the test with KM12; 44.9 µM (inactive) in the test with IGROV-1; 38.4 µM (inactive) in the test on MCF7; > 100 µM (inactive) in the test on HT-29.
With `c1ccc(CCN2CCc3[nH]c4ccccc4c3C2)cc1`, the GI50 in the test with RXF 393 was 17.5 µM (inactive); in the test with OVCAR-5, 20 µM (inactive); with OVCAR-4, 40.4 µM (inactive); with Malme-3M, 17.1 µM (inactive); in the test on SF-295, 15.1 µM (inactive); in the test with NCI-H226 it was 29.8 µM (inactive). The GI50 in the test on UO-31 is 13.6 µM (inactive); in the test with ACHN, 28.1 µM (inactive); in the test on SF-268, 71.1 µM (inactive); in the test with EKVX it was 33.4 µM (inactive); in the test with HOP-92, 11.9 µM (inactive); in the test with HCT-15 it was 23.4 µM. The GI50 was > 10 µM (inactive) in the test with UACC-62; 20.8 µM (inactive) in the test with SNB-19; 17.1 µM (inactive) in the test with M14; 17.3 µM (inactive) with KM12; 23.9 µM (inactive) in the test on IGROV-1; 18.8 µM (inactive) in the test on MCF7. The GI50 in the test with HT-29 is 14.1 µM (inactive).
As to `N#C/C(N)=C(C#N)/N=C/NCCO`, the GI50 with OVCAR-5, in the test on OVCAR-4, with Malme-3M, in the test with SF-295, in the test on NCI-H226 and in the test on UO-31 was > 100 µM (inactive) in each case. Further, the GI50 in the test on ACHN was > 100 µM (inactive); in the test with SF-268, > 100 µM (inactive); with EKVX, > 100 µM (inactive); in the test on HCT-15, above 100 µM; with BT-549, > 100 µM (inactive); in the test with UACC-62, > 100 µM (inactive). Also, the GI50 in the test with SNB-19, in the test with M14, in the test on KM12, in the test on IGROV-1, with MCF7 and with HT-29 was > 100 µM (inactive) each time.
With `C=C1C(=O)O[C@H]2[C@H]([C@H](C)CCCC(C)=O)O[C@H]([C@@]3(C)CCC(=O)O3)C[C@@H]12`, the GI50 with OVCAR-5 is > 100 µM (inactive); in the test with OVCAR-4 it was > 100 µM (inactive); with Malme-3M it was 18.4 µM (inactive); in the test with SF-295, > 100 µM (inactive); in the test on NCI-H226, 31.3 µM (inactive); in the test on UO-31, > 100 µM (inactive). Further, the GI50 in the test with ACHN was 46.9 µM (inactive); with SF-268 it was 0.0316 µM (active); with EKVX, 79.3 µM (inactive); in the test with HOP-92 it was > 100 µM (inactive); with HCT-15, 42 µM; with BT-549 it was 31.8 µM (inactive). The GI50 was 66.5 µM (inactive) in the test with UACC-62; > 100 µM (inactive) in the test with SNB-19; 33.9 µM (inactive) in the test on M14; 98.9 µM (inactive) in the test on KM12; > 100 µM (inactive) in the test with IGROV-1; 90.2 µM (inactive) in the test with HT-29.
For `CCCOC(=O)NC(C)C(=O)NC(CCC(=O)NC(CCCC(N)C(=O)O)C(=O)NC(C)C(=O)O)C(=O)O` (configuration not stated), the GI50 with OVCAR-5 is 41.9 µM (inactive); in the test with OVCAR-4 it was 29.4 µM (inactive); in the test with SF-295, 16.6 µM (inactive); with UO-31, 41.8 µM (inactive); in the test on ACHN, 42.9 µM (inactive); in the test with SF-268, 16.7 µM (inactive). Further, the GI50 in the test on EKVX was 49.3 µM (inactive); in the test with HOP-92 it was 29.5 µM (inactive); with HCT-15 it was 18.1 µM; in the test on BT-549 it was 20.7 µM (inactive); in the test on UACC-62 it was 18.6 µM (inactive); with SNB-19 it was 27.7 µM (inactive). Besides, the GI50 in the test on M14 is 18.3 µM (inactive); with KM12, 14.4 µM (inactive); with IGROV-1, 62.2 µM (inactive); in the test with MCF7, 39.2 µM (inactive); with HT-29 it was 19.5 µM (inactive).
As for `O=S(=O)(CCn1c(Sc2ccccc2)c(Sc2ccccc2)c2ccccc21)c1ccccc1`, the GI50 in the test with OVCAR-5, in the test with OVCAR-4, in the test with Malme-3M, in the test on SF-295, with NCI-H226 and in the test on UO-31 was > 100 µM (inactive) each time. Besides, the GI50 is > 100 µM (inactive) in the test on ACHN; > 100 µM (inactive) in the test with SF-268; > 100 µM (inactive) with EKVX; above 100 µM in the test with HCT-15; > 100 µM (inactive) in the test on BT-549; > 100 µM (inactive) in the test on UACC-62. Moreover, the GI50 in the test with SNB-19, in the test on M14, in the test with KM12, in the test on IGROV-1, in the test on MCF7 and with HT-29 was > 100 µM (inactive) each time.
Take `Cc1ccc(S(=O)(=O)NC(=O)Nc2cccc(S(N)(=O)=O)c2)cc1`: the GI50 in the test on RXF 393, with OVCAR-5, in the test with OVCAR-4, with Malme-3M, in the test on SF-295 and with NCI-H226 was > 100 µM (inactive) each time. Moreover, the GI50 in the test with UO-31 is > 100 µM (inactive); with ACHN, > 100 µM (inactive); with SF-268, > 100 µM (inactive); in the test with EKVX it was > 100 µM (inactive); in the test on HOP-92 it was > 100 µM (inactive); with HCT-15, above 100 µM. The GI50 in the test with UACC-62, in the test on SNB-19, in the test on M14, with KM12, in the test with IGROV-1 and in the test with MCF7 was > 100 µM (inactive) in each case. Also, the GI50 with HT-29 was > 100 µM (inactive).
Consider `O=C1C2C(C(=O)N1c1ccccc1)C1(c3ccccc3)CCC2(C(=O)c2ccccc2)O1` (configuration not stated), for which the GI50 with RXF 393, in the test on OVCAR-5, in the test on OVCAR-4, in the test on Malme-3M, with SF-295 and with UO-31 was > 10 µM (inactive) in each case. Besides, the GI50 is > 10 µM (inactive) with ACHN; > 10 µM (inactive) with SF-268; > 10 µM (inactive) in the test on EKVX; above 10 µM in the test on HCT-15; > 10 µM (inactive) in the test with BT-549; > 10 µM (inactive) with UACC-62. Moreover, the GI50 in the test on SNB-19, with M14, in the test with KM12, with IGROV-1, in the test with MCF7 and in the test on HT-29 was > 10 µM (inactive) in each case.
Turning to `C[n+]1c(-c2ccc(/C=N\Nc3ccnc(N/N=C/c4ccc(-c5cn6ccsc6[n+]5C)cc4)n3)cc2)cn2ccsc21`, the GI50 was 18.3 µM (inactive) in the test with RXF 393; 16.7 µM (inactive) in the test with OVCAR-5; 58.1 µM (inactive) in the test on OVCAR-4; 29.7 µM (inactive) in the test with Malme-3M; 16.4 µM (inactive) in the test with NCI-H226; 20 µM (inactive) in the test with UO-31. Also, the GI50 in the test on ACHN was 32.5 µM (inactive); in the test with EKVX, 24.8 µM (inactive); in the test on HOP-92 it was 18.3 µM (inactive); in the test with HCT-15 it was 64.4 µM; in the test on UACC-62, 24.4 µM (inactive); with SNB-19, 37.6 µM (inactive). For the same compound, the GI50 with M14 is 4.95 µM (inactive); with KM12, 15.8 µM (inactive); in the test on IGROV-1, 11.2 µM (inactive); in the test with MCF7 it was 34.8 µM (inactive); in the test with HT-29, 9.93 µM (inactive).

The values above are taken from ChEMBL document CHEMBL1201862, “PubChem BioAssay data set” (2004).
